molecular target: Nav 1.7 (Homo sapiens (Human), UniProt Q15858); experiment: Inhibition of sodium channels, Red Membrane Potential Dye FLIPR assay, veratridine depolarization; type: cell-based; conditions: HEK-293 cells overexpressing the channel; read-out: Nav1.7 IC50
Sequence (Q15858 whole entry): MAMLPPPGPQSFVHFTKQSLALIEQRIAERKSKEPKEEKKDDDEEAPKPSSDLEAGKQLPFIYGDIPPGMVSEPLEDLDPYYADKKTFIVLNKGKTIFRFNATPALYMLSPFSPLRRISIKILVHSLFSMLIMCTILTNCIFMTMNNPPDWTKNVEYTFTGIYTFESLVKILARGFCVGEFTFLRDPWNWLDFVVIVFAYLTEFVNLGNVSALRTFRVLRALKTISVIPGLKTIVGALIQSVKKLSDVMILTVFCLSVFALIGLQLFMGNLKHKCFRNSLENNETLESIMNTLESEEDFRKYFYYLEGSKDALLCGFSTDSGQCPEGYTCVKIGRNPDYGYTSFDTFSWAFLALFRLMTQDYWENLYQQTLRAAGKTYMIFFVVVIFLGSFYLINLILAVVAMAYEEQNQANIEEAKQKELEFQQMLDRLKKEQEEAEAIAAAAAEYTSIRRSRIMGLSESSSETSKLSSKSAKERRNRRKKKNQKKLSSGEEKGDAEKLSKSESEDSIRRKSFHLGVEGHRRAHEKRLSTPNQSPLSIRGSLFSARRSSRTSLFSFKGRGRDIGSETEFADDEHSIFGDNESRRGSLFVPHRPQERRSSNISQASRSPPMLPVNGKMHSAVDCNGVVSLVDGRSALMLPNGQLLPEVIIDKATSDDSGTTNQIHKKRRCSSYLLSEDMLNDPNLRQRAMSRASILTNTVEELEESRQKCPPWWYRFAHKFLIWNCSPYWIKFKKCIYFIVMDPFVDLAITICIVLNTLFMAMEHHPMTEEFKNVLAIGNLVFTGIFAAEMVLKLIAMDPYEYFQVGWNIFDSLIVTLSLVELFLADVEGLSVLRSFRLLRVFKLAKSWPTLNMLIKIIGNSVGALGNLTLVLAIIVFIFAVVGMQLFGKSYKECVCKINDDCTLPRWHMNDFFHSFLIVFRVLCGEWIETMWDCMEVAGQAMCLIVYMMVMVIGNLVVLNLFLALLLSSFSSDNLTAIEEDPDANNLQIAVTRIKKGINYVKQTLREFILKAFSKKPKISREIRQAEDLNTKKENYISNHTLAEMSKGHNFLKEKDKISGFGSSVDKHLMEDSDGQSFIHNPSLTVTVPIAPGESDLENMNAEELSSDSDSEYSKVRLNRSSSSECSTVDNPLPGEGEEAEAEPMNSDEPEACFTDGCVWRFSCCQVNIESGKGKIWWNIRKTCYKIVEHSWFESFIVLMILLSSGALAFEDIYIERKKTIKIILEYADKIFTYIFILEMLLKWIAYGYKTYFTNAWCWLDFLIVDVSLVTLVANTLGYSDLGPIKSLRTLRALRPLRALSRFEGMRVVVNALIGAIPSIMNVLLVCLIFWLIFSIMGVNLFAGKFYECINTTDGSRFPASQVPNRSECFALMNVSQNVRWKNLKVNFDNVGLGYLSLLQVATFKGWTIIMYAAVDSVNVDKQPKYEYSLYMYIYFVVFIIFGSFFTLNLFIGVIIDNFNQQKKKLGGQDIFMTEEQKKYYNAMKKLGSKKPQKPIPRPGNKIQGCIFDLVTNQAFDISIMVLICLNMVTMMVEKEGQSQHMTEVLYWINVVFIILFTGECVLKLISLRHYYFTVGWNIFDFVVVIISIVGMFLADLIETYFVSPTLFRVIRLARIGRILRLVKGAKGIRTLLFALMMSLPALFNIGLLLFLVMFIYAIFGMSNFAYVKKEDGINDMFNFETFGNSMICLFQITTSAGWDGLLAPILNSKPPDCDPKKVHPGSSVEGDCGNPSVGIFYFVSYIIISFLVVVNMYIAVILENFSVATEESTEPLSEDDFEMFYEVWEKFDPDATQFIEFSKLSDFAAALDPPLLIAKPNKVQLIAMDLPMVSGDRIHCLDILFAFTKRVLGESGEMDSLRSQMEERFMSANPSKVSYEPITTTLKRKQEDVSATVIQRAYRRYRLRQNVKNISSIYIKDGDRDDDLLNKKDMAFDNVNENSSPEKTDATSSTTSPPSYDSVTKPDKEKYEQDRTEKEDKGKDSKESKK

| Compound | IC50 |
| --- | --- |
| Cc1cccc(NS(=O)(=O)c2ccc3c(c2)OCC[C@@H]3c2ccc(C(F)(F)F)cc2-c2ccnn2C)n1 [Example 20, (S&R)-4-(2-(1-methyl-1H-pyrazol-5-yl)-4-(trifluoromethyl)phenyl)-N-(6-methylpyridin-2-yl)chroman-7-sulfonamide] | 0.245 µM |

molecular target: Nav 1.5 (Homo sapiens (Human), UniProt Q14524); experiment: as above; type: cell-based; conditions: HEK-293 cells overexpressing the channel; 10 μM
Sequence (Q14524 whole entry): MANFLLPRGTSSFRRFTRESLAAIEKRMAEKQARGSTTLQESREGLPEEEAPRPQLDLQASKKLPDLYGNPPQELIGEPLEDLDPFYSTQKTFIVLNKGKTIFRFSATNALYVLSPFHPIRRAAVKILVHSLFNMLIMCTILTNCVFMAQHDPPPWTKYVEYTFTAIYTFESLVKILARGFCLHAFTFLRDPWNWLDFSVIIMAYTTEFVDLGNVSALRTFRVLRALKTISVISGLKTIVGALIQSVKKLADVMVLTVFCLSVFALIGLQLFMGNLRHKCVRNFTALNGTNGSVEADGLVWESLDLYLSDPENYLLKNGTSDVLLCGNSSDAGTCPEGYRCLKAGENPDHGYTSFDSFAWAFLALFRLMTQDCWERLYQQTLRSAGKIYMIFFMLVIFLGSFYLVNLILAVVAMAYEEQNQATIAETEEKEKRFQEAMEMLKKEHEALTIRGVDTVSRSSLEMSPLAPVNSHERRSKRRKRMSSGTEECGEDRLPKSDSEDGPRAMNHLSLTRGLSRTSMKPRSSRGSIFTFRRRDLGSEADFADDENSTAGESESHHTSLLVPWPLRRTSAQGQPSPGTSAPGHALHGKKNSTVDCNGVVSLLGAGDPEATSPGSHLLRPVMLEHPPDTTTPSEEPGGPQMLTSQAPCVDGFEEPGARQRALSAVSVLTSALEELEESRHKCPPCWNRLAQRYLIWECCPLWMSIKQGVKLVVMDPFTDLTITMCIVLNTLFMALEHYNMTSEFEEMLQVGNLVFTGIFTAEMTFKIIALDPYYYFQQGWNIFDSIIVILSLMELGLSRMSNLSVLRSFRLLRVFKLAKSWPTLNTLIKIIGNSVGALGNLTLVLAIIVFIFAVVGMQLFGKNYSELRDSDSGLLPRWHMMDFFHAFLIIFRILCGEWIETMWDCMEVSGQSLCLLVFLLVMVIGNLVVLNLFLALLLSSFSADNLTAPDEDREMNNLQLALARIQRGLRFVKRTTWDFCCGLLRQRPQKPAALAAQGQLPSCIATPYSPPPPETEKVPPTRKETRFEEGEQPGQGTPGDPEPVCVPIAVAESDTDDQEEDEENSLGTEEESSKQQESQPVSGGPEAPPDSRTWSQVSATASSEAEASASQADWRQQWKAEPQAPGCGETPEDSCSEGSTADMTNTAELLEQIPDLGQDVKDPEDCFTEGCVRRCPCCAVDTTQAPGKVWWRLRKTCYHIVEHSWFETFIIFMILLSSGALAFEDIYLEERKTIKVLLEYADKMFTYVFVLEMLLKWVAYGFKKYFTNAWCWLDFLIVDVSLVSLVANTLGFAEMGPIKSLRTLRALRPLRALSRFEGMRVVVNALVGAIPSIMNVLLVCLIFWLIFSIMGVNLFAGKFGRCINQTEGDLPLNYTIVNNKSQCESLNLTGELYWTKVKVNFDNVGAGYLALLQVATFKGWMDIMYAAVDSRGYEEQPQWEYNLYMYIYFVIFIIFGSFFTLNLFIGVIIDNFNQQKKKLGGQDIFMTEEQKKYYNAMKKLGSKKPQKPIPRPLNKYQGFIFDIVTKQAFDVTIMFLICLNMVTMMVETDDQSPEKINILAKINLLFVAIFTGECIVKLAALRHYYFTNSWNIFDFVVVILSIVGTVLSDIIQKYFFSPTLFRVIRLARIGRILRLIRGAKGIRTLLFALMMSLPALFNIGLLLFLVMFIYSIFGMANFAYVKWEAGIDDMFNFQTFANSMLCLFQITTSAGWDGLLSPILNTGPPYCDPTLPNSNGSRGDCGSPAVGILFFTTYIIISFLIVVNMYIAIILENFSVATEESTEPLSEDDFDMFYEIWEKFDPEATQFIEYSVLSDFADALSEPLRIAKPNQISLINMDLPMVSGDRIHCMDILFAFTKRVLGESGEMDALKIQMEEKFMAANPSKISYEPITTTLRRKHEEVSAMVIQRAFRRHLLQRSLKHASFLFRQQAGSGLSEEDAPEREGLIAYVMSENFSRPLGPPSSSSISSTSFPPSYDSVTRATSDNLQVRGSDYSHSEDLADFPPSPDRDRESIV

| Compound | Nav1.5 % inhibition @ 10 μM |
| --- | --- |
| Cn1nccc1-c1cc(C(F)(F)F)ccc1[C@H]1CCOc2cc(S(=O)(=O)Nc3cc(F)ccn3)ccc21 [Example 4, (S&R)—N-(4-Fluoropyridin-2-yl)-4-(2-(1-methyl-1H-pyrazol-5-yl)-4-(trifluoromethyl)phenyl)chroman-7-sulfonamide] | 57% |
| Cn1nccc1-c1cc(C(F)(F)F)ccc1[C@@H]1CCOc2cc(S(=O)(=O)Nc3ccc(F)cn3)ccc21 [Example 5, (S&R)—N-(5-Fluoropyridin-2-yl)-4-(2-(1-methyl-1H-pyrazol-5-yl)-4-(trifluoromethyl)phenyl)chroman-7-sulfonamide] | 58% |
| O=S(=O)(Nc1cccc(F)n1)c1ccc2c(c1)OCC[C@@H]2c1ccc(C(F)(F)F)cc1-c1ccc(F)cc1 [Example 50, (S&R)-4-(4′-Fluoro-5-(trifluoromethyl)-[, 1′-biphenyl]-2-yl)-N-(6-fluoropyridin-2-yl) chromane-7-sulfonamide] | 38% |
| O=S(=O)(Nc1ncccn1)c1ccc2c(c1)OCC[C@@H]2c1ccc(C(F)(F)F)cc1N1CCOCC1 [Example 119, (S&R)-4-(2-morpholino-4-(trifluoromethyl)phenyl)-N-(pyrimidin-2-yl)chroman-7-sulfonamide] | 30% |
| O=S(=O)(Nc1ncccn1)c1ccc2c(c1)OCC[C@@H]2c1ccc(C(F)(F)F)cc1-c1ccc(F)cn1 [Example-194, (S&R)-4-(2-(5-fluoropyridin-2-yl)-4-(trifluoromethyl)phenyl)-N-(pyrimidin-2-yl)chroman-7-sulfonamide] | 65% |

same assay, conditions: HEK-293 cells overexpressing the channel; read-out: Nav1.5 IC50 (bound given in μM)

| Compound | IC50 |
| --- | --- |
| O=S1(=O)CCN(c2cc(C(F)(F)F)ccc2[C@H]2CCOc3cc(S(=O)(=O)Nc4ncc(F)cn4)ccc32)CC1 (racemic) [Example-234, (R/S)-4-(2-(1,1-dioxidothiomorpholino)-4-(trifluoromethyl)phenyl)-N-(5-fluoropyrimidin-2-yl)chroman-7-sulfonamide] | > 10 µM |
| O=S1(=O)CCN(c2cc(C(F)(F)F)ccc2[C@H]2CCOc3cc(S(=O)(=O)Nc4cccc(F)n4)ccc32)CC1 (racemic) [Example-235, (R/S)-4-(2-(1,1-dioxidothiomorpholino)-4-(trifluoromethyl)phenyl)-N-(6-fluoropyridin-2-yl)chroman-7-sulfonamide] | > 10 µM |
| O=S1(=O)CCN(c2cc(C(F)(F)F)ccc2[C@H]2CCOc3cc(S(=O)(=O)Nc4ccncn4)ccc32)CC1 (racemic) [Example-237, (R/S)-4-(2-(1,1-dioxidothiomorpholino)-4-(trifluoromethyl)phenyl)-N-(pyrimidin-4-yl)chromane-7-sulfonamide] | > 10 µM |
| Cn1nccc1-c1cc(C(F)(F)F)ccc1[C@@H]1CCOc2cc(S(=O)(=O)Nc3cc(F)ccn3)ccc21 [Example 3, (S&R)—N-(4-Fluoropyridin-2-yl)-4-(2-(1-methyl-1H-pyrazol-5-yl)-4-(trifluoromethyl)phenyl)chroman-7-sulfonamide] | > 10 µM |
| Cn1nccc1-c1cc(C(F)(F)F)ccc1[C@@H]1CCOc2cc(S(=O)(=O)Nc3ccncn3)ccc21 [Example 9, (S&R)-4-(2-(1-Methyl-1H-pyrazol-5-yl)-4-(trifluoromethyl)phenyl)-N-(pyrimidin-4-yl) chroman-7-sulfonamide] | > 10 µM |
| Cn1nccc1-c1cc(C(F)(F)F)ccc1[C@H]1CCOc2cc(S(=O)(=O)Nc3ccncn3)ccc21 [Example 10, (S&R)-4-(2-(1-Methyl-1H-pyrazol-5-yl)-4-(trifluoromethyl)phenyl)-N-(pyrimidin-4-yl) chroman-7-sulfonamide] | > 10 µM |
| Cn1nccc1-c1cc(C(F)(F)F)ccc1[C@H]1CCOc2cc(S(=O)(=O)Nc3cnccn3)ccc21 [Example 12, (S&R)-4-(2-(1-Methyl-1H-pyrazol-5-yl)-4-(trifluoromethyl)phenyl)-N-(pyrazin-2-yl) chromane-7-sulfonamide] | > 10 µM |
| O=S(=O)(Nc1ncc(F)cn1)c1ccc2c(c1)OCC[C@H]2c1ccc(C(F)(F)F)cc1-c1ccc(F)nc1 [Example 37, (S&R)-4-(2-(6-Fluoropyridin-3-yl)-4-(trifluoromethyl)phenyl)-N-(5-fluoropyrimidin-2-yl) chromane-7-sulfonamide] | > 10 µM |
| O=S(=O)(Nc1ncc(F)cn1)c1ccc2c(c1)OCC[C@@H]2c1ccc(C(F)(F)F)cc1-c1ccc(F)nc1 [Example 38, (S&R)-4-(2-(6-Fluoropyridin-3-yl)-4-(trifluoromethyl)phenyl)-N-(5-fluoropyrimidin-2-yl) chromane-7-sulfonamide] | > 10 µM |
| O=S(=O)(Nc1ncc(F)cn1)c1ccc2c(c1)OCC[C@H]2c1ccc(C(F)(F)F)cc1-c1ccc(F)cc1 [Example 45, (S&R)-4-(4′-Fluoro-5-(trifluoromethyl)-[1,1′-biphenyl]-2-yl)-N-(5-fluoropyrimidin-2-yl) chromane-7-sulfonamide] | > 10 µM |
| O=S(=O)(Nc1ncc(F)cn1)c1ccc2c(c1)OCC[C@@H]2c1ccc(C(F)(F)F)cc1-c1ccc(F)cc1 [Example 46, (S&R)-4-(4′-Fluoro-5-(trifluoromethyl)-[1,1′-biphenyl]-2-yl)-N-(5-fluoropyrimidin-2-yl) chromane-7-sulfonamide] | > 10 µM |
| O=S(=O)(Nc1ccncn1)c1ccc2c(c1)OCC[C@@H]2c1ccc(C(F)(F)F)cc1-c1ccc(F)cc1 [Example 48, (S&R)-4-(4′-Fluoro-5-(trifluoromethyl)-[1,1′-biphenyl]-2-yl)-N-(pyrimidin-4-yl)chromane-7-sulfonamide] | > 10 µM |
| O=S(=O)(Nc1cccc(F)n1)c1ccc2c(c1)OCC[C@H]2c1ccc(C(F)(F)F)cc1-c1ccc(F)cc1 [Example 49, (S&R)-4-(4′-Fluoro-5-(trifluoromethyl)-[, 1′-biphenyl]-2-yl)-N-(6-fluoropyridin-2-yl) chromane-7-sulfonamide] | > 10 µM |
| O=S(=O)(Nc1ncccn1)c1ccc2c(c1)OCC[C@H]2c1ccc(C(F)(F)F)cc1-n1ccnn1 [Example 51, (S&R)-4-(2-(1H-1,2,3-Triazol-1-yl)-4-(trifluoromethyl)phenyl)-N-(pyrimidin-2-yl)chromane-7-sulfonamide] | > 10 µM |
| O=S(=O)(Nc1ncccn1)c1ccc2c(c1)OCC[C@@H]2c1ccc(C(F)(F)F)cc1-n1ccnn1 [Example 52, (S&R)-4-(2-(1H-1,2,3-Triazol-1-yl)-4-(trifluoromethyl)phenyl)-N-(pyrimidin-2-yl)chromane-7-sulfonamide] | > 10 µM |
| O=S(=O)(Nc1ncc(F)cn1)c1ccc2c(c1)OCC[C@H]2c1ccc(C(F)(F)F)cc1-n1ccnn1 [Example 55, (S&R)-4-(2-(1H-1,2,3-Triazol-1-yl)-4-(trifluoromethyl)phenyl)-N-(5-fluoropyrimidin-2-yl) chromane-7-sulfonamide] | > 10 µM |
| O=S(=O)(Nc1ncc(F)cn1)c1ccc2c(c1)OCC[C@@H]2c1ccc(C(F)(F)F)cc1-n1ccnn1 [Example 56, (S&R)-4-(2-(1H-1,2,3-Triazol-1-yl)-4-(trifluoromethyl)phenyl)-N-(5-fluoropyrimidin-2-yl) chromane-7-sulfonamide] | > 10 µM |
| O=S(=O)(Nc1ccncn1)c1ccc2c(c1)OCC[C@H]2c1ccc(C(F)(F)F)cc1-n1ccnn1 [Example 57, (S&R)-4-(2-(1H-1,2,3-Triazol-1-yl)-4-(trifluoromethyl)phenyl)-N-(pyrimidin-4-yl)chromane-7-sulfonamide] | > 10 µM |
| O=S(=O)(Nc1ccncn1)c1ccc2c(c1)OCC[C@@H]2c1ccc(C(F)(F)F)cc1-n1ccnn1 [Example 58, (S&R)-4-(2-(1H-1,2,3-Triazol-1-yl)-4-(trifluoromethyl)phenyl)-N-(pyrimidin-4-yl)chromane-7-sulfonamide] | > 10 µM |
| O=S(=O)(Nc1cccc(F)n1)c1ccc2c(c1)OCC[C@H]2c1ccc(C(F)(F)F)cc1-n1ccnn1 [Example 59, (S&R)-4-(2-(1H-1,2,3-Triazol-1-yl)-4-(trifluoromethyl)phenyl)-N-(6-fluoropyridin-2-yl) chromane-7-sulfonamide] | > 10 µM |
| O=S(=O)(Nc1cccc(F)n1)c1ccc2c(c1)OCC[C@@H]2c1ccc(C(F)(F)F)cc1-n1ccnn1 [Example 60, (S&R)-4-(2-(1H-1,2,3-Triazol-1-yl)-4-(trifluoromethyl)phenyl)-N-(6-fluoropyridin-2-yl) chromane-7-sulfonamide] | > 10 µM |
| O=S(=O)(Nc1ncccn1)c1ccc2c(c1)OCC[C@H]2c1ccc(C(F)(F)F)cc1N1CCOCC1 [Example 118, (S&R)-4-(2-morpholino-4-(trifluoromethyl)phenyl)-N-(pyrimidin-2-yl)chroman-7-sulfonamide] | > 10 µM |
| O=S(=O)(Nc1ncccn1)c1ccc2c(c1)OCC[C@H]2c1ccc(C(F)(F)F)cc1-c1ccc(F)cn1 [Example-193, (S&R)-4-(2-(5-fluoropyridin-2-yl)-4-(trifluoromethyl)phenyl)-N-(pyrimidin-2-yl)chroman-7-sulfonamide] | > 10 µM |
| Cc1ccc(-c2cc(C(F)(F)F)ccc2[C@@H]2CCOc3cc(S(=O)(=O)Nc4ncccn4)ccc32)cn1 [Example-201, (S)-4-(2-(6-methylpyridin-3-yl)-4-(trifluoromethyl)phenyl)-N-(pyrimidin-2-yl)chromane-7-sulfonamide] | > 10 µM |
| Cc1ccc(-c2cc(C(F)(F)F)ccc2[C@H]2CCOc3cc(S(=O)(=O)Nc4ncccn4)ccc32)cn1 [Example-202, (R)-4-(2-(6-methylpyridin-3-yl)-4-(trifluoromethyl)phenyl)-N-(pyrimidin-2-yl)chroman-7-sulfonamide] | > 10 µM |
| O=S1(=O)CCN(c2cc(C(F)(F)F)ccc2[C@H]2CCOc3cc(S(=O)(=O)Nc4ncccn4)ccc32)CC1 [Example-233, (S&R)-4-(2-(1,1-dioxidothiomorpholino)-4-(trifluoromethyl)phenyl)-N-(pyrimidin-2-yl)chroman-7-sulfonamide] | > 10 µM |

Source: patent publication US10239869B2, “Sulfonamide compounds as voltage-gated sodium channel modulators” (LUPIN LIMITED, priority 2015, dated 2019)
